Biological target: T1, TrkA (Homo sapiens, UniProt P04629)
T1 construct: aa 441-796; His; purchased Invitrogen PV3144
Assay: Isolated TRK enzyme assay (HTRF KinEASE-TK kit), PV3144 TrkA enzyme assay
Format: biochemical
Settings: PV3144 TrkA enzyme assay, recombinant His-tagged cytoplasmic domain aa 441-796, 4 nM enzyme, 40 uM ATP; arithmetic mean where more than one reading; read-out: Trka enzyme (IC50)
Method: Isolated TRK Enzyme assays use the HTRF KinEASE-TK kit (Cisbio Cat#62TK0PEJ) with recombinant His-tagged cytoplasmic domains of each TRK receptor sourced from Invitrogen (see table below). This activity-assay measures the phosphorylation of tyrosine residues within a substrate from the HTRF kit which has been validated by Cisbio for a variety of tyrosine kinases including the TRK receptors.
0.5 mM stock solutions of test compounds are prepared and serially diluted in 100% DMSO. A standard curve using the compound of Example 135 disclosed in WO2005/116035 of 150 uM is also prepared on each test plate. High percentage effect (HPE) is defined by 150 uM (using the compound of Example 135 as disclosed in WO2005/116035) and 0% effect (ZPE) is defined by 100% DMSO. Greiner low volume black plates containing 0.2 ul of serially diluted compound, standard and HPE/ZPE are created using the Bravo nanolitre dispenser.
1X enzyme buffer is prepared from 5X Enzymatic Buffer from the Cisbio KinEASE TK kit using MilliQ water. The buffer is then supplemented with 10 mM MgCl and 2 mM DTT (both from Sigma). In the case of TRKB, the buffer is also supplemented with 125 nM Supplement Enzymatic Buffer (SEB) from the Cisbio kit.
2X FAC of enzyme and 2X FAC ATP diluted in 1X complete enzyme buffer is incubated at room temperature for 20 minutes to preactivate the enzyme. Following this preactivation step, 5 ul/well of enzyme+ATP mix is added using a Multidrop Micro to the assay plate, spotted with 0.2 ul 100% DMSO compound. This is left for 20 mins at room temperature before adding 5 ul of 2 uM TK-substrate-Biotin (from the Cisbio kit) diluted in 1X enzyme buffer (1 uM FAC) using the Multidrop Micro. The reaction is incubated at room temperature for the optimized assay reaction time (see table). The reaction is stopped by adding 10 ul/well HTRF Detection Buffer containing 0.25 uM Streptavidin-XL665 (0.125 uM FAC) and 1:200 TK Antibody-Cryptate using a Multidrop.
After the Detection Reagent addition, plates are covered and incubated at room temperature for 60 minutes. HTRF signal is read using an Envision reader, measured as a ratio of emissions at two different wavelengths, 620 nm and 665 nm. […] Test compound data are expressed as percentage inhibition defined by HPE and ZPE values for each plate. Percentage inhibition in the presence of test compound is plotted against compound concentration on a log scale to determine an IC50 from the resultant sigmoid curve.
Below are TrkA IC50 data generated using the PV3144 TrkA enzyme assay. Where more than one reading was taken, the arithmetic mean is presented.

T1 sequence (P04629 441-796): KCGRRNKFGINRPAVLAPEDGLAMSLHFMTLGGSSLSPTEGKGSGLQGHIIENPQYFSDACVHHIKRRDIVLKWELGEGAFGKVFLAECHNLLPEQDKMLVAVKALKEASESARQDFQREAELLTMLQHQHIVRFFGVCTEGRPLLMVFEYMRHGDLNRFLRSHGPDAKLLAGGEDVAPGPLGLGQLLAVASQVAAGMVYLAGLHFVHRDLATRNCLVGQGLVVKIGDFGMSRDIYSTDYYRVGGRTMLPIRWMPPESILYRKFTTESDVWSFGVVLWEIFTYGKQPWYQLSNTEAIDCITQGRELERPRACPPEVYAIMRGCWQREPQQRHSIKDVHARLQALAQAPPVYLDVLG

Row | Compound | IC50 [nM]
1 | C[C@H](CO)n1cc(C(=O)c2cc(NC(=O)Cn3ccc(C(F)(F)F)n3)ccn2)c2cncnc21 [Example 26, N-[2-({7-[(2R)-1-hydroxypropan-2-yl]-7H-pyrrolo[2,3-d]pyrimidin-5-yl}carbonyl)pyridin-4-yl]-2-[3-(trifluoromethyl)-1H-pyrazol-1-yl]acetamide] | 24.5
2 | Cc1cc(C(F)(F)F)nn1CC(=O)Nc1ccnc(C(=O)c2cn([C@@H](C)CO)c3ncncc23)c1 [Example 20, N-[2-({7-[(2S)-1-hydroxypropan-2-yl]-7H-pyrrolo[2,3-d]pyrimidin-5-yl}carbonyl)pyridin-4-yl]-2-[5-methyl-3-(trifluoromethyl)-1H-pyrazol-1-yl]acetamide] | 120
3 | CC1(n2cc(C(=O)c3cc(NC(=O)Cc4ccc(C#N)cc4)ccn3)c3cncnc32)COC1 [Example 169, 2-(4-cyanophenyl)-N-(2-{[7-(3-methyloxetan-3-yl)-7H-pyrrolo[2,3-d]pyrimidin-5-yl]carbonyl}pyridin-4-yl)acetamide] | 459
4 | CC(C)(CO)n1cc(C(=O)c2cc(NC(=O)Cc3ccc(C#N)cc3)ccn2)c2cnc(N)nc21 [Example 51, N-(2-{[2-amino-7-(1-hydroxy-2-methylpropan-2-yl)-7H-pyrrolo[2,3-d]pyrimidin-5-yl]carbonyl}pyridin-4-yl)-2-(4-cyanophenyl)acetamide] | 78.7
5 | C[C@@H](CO)n1cc(C(=O)c2cc(NC(=O)Cc3cccc(C(F)(F)F)c3)ccn2)c2cncnc21 [Example 24, N-[2-({7-[(2S)-1-hydroxypropan-2-yl]-7H-pyrrolo[2,3-d]pyrimidin-5-yl}carbonyl)pyridin-4-yl]-2-[3-(trifluoromethyl)phenyl]acetamide] | 59.8
6 | CC(C)n1cc(C(=O)c2cc(NC(=O)Cn3cc(C(F)(F)F)nn3)ccn2)c2cnc(N)nc21 [Example 90, N-(2-{[2-amino-7-(propan-2-yl)-7H-pyrrolo[2,3-d]pyrimidin-5-yl]carbonyl}pyridin-4-yl)-2-[4-(trifluoromethyl)-1H-1,2,3-triazol-1-yl]acetamide] | 18.5
7 | CC(C)(C)n1cc(C(=O)c2ccnc(NC(=O)Cc3ccc(C#N)cc3)c2)c2cncnc21 [Example 173, N-{4-[(7-tert-butyl-7H-pyrrolo[2,3-d]pyrimidin-5-yl)carbonyl}pyridin-2-yl]-2-(4-cyanophenyl)acetamide] | 25.4
8 | Cc1cc(C)n(CC(=O)Nc2cc(C(=O)c3cn(CC(C)(C)O)c4ncncc34)ccn2)n1 [Example 127, 2-(3,5-dimethyl-1H-pyrazol-1-yl)-N-(4-{[7-(2-hydroxy-2-methylpropyl)-7H-pyrrolo[2,3-d]pyrimidin-5-yl]carbonyl}pyridin-2-yl)acetamide] | 1110
9 | CC(CO)(CO)n1cc(C(=O)c2cc(NC(=O)Cc3ccc(C(F)(F)F)cc3)ccn2)c2cncnc21 [Example 103, N-(2-{[7-(1,3-dihydroxy-2-methylpropan-2-yl)-7H-pyrrolo[2,3-d]pyrimidin-5-yl]carbonyl}pyridin-4-yl)-2-[4-(trifluoromethyl)phenyl]acetamide] | 13.6
10 | O=C(Cc1ccc(OC(F)(F)F)cc1)Nc1cc(C(=O)c2cn(CCO)c3ncncc23)ccn1 [Example 144, N-(4-{[7-(2-hydroxyethyl)-7H-pyrrolo[2,3-d]pyrimidin-5-yl]carbonyl}pyridin-2-yl)-2-[4-(trifluoromethoxy)phenyl]acetamide] | 111
11 | O=C(Cc1cccc(Cl)c1)Nc1cc(C(=O)c2cn(CCO)c3ncncc23)ccn1 [Example 146, 2-(3-chlorophenyl)-N-(4-{[7-(2-hydroxyethyl)-7H-pyrrolo[2,3-d]pyrimidin-5-yl]carbonyl}pyridin-2-yl)acetamide] | 246
12 | CC(C)(C)n1cc(C(=O)c2cc(NC(=O)Cn3ccc(C(F)(F)F)n3)ccn2)c2cncnc21 [Example 41, N-{2-[(7-tert-butyl-7H-pyrrolo[2,3-d]pyrimidin-5-yl)carbonyl]pyridin-4-yl}-2-[3-(trifluoromethyl)-1H-pyrazol-1-yl]acetamide] | 10.7
13 | C[C@H](CO)n1cc(C(=O)c2cc(NC(=O)Cc3ccc(C(F)(F)F)cc3)ccn2)c2cncnc21 [Example 22, N-[2-({7-[(2R)-1-hydroxypropan-2-yl]-7H-pyrrolo[2,3-d]pyrimidin-5-yl}carbonyl)pyridin-4-yl]-2-[4-(trifluoromethyl)phenyl]acetamide] | 59.5
14 | CC(C)(CO)n1cc(C(=O)c2cc(NC(=O)Cc3cccc(C(F)(F)F)c3)ccn2)c2cncnc21 [Example 56, N-(2-{[7-(1-hydroxy-2-methylpropan-2-yl)-7H-pyrrolo[2,3-d]pyrimidin-5-yl]carbonyl}pyridin-4-yl)-2-[3-(trifluoromethyl)phenyl]acetamide] | 6.56
15 | Cc1cc(C)n(CC(=O)Nc2cc(C(=O)c3cn([C@H]4CC[C@@H](O)CC4)c4ncncc34)ccn2)n1 [Example 4, 2-(3,5-dimethyl-1H-pyrazol-1-yl)-N-(4-{[7-(cis-4-hydroxycyclohexyl)-7H-pyrrolo[2,3-d]pyrimidin-5-yl]carbonyl}pyridin-2-yl)acetamide] | 74.3
16 | CC1(n2cc(C(=O)c3cc(NC(=O)Cc4ccc(C(F)(F)F)c(F)c4)ccn3)c3cncnc32)COC1 [Example 170, 2-[3-fluoro-4-(trifluoromethyl)phenyl]-N-(2-{[7-(3-methyloxetan-3-yl)-7H-pyrrolo[2,3-d]pyrimidin-5-yl]carbonyl}pyridin-4-yl)acetamide] | 99.8
17 | Cc1cc(C(=O)c2cn(C(C)C)c3ncncc23)cc(NC(=O)Cc2ccc(F)cc2)n1 [Example 77, 2-(4-fluorophenyl)-N-(6-methyl-4-{[7-(propan-2-yl)-7H-pyrrolo[2,3-d]pyrimidin-5-yl]carbonyl}pyridin-2-yl)acetamide] | 226
18 | Cc1ccnn1CC(=O)Nc1cc(C(=O)c2cn(C(C)C)c3ncncc23)ccn1 [Example 160, 2-(5-methyl-1H-pyrazol-1-yl)-N-(4-{[7-(propan-2-yl)-7H-pyrrolo[2,3-d]pyrimidin-5-yl]carbonyl}pyridin-2-yl)acetamide] | 86.3
19 | O=C(Cc1ccc(Cl)cn1)Nc1ccnc(C(=O)c2cn(C(CO)CO)c3ncncc23)c1 [Example 100, 2-(5-chloropyridin-2-yl)-N-(2-{[7-(1,3-dihydroxypropan-2-yl)-7H-pyrrolo[2,3-d]pyrimidin-5-yl]carbonyl}pyridin-4-yl)acetamide] | 2190
20 | CC(C)n1cc(C(=O)c2cc(NC(=O)Cc3ccc(C#N)cn3)ccn2)c2cnc(N)nc21 [Example 63, N-(2-{[2-amino-7-(propan-2-yl)-7H-pyrrolo[2,3-d]pyrimidin-5-yl]carbonyl}pyridin-4-yl)-2-(5-cyanopyridin-2-yl)acetamide] | 136
21 | CC(C)n1cc(C(=O)c2ccnc(NC(=O)Cn3ccnc3)c2)c2cncnc21 [Example 156, 2-(1H-imidazol-1-yl)-N-(4-{[7-(propan-2-yl)-7H-pyrrolo[2,3-d]pyrimidin-5-yl]carbonyl}pyridin-2-yl)acetamide] | 1060
22 | Cc1cc(C(F)(F)F)nn1CC(=O)Nc1cc(C(=O)c2cn(C(C)C)c3ncncc23)ccc1C#N [Example 35, N-(2-cyano-5-{[7-(propan-2-yl)-7H-pyrrolo[2,3-d]pyrimidin-5-yl]carbonyl}phenyl)-2-[5-methyl-3-(trifluoromethyl)-1H-pyrazol-1-yl]acetamide] | 10.9
23 | CC(C)n1cc(C(=O)c2ccnc(NC(=O)Cc3ccc(C#N)cn3)c2)c2cncnc21 [Example 62, 2-(5-Cyanopyridin-2-yl)-N-{4-[(7-isopropyl-7H-pyrrolo[2,3-d]pyrimidin-5-yl)carbonyl}pyridin-2-yl]acetamide] | 34.3
24 | CC(C)n1cc(C(=O)c2ccnc(NC(=O)Cc3ccc(F)cc3F)c2)c2cncnc21 [Example 118, 2-(2,4-difluorophenyl)-N-(4-{[7-(propan-2-yl)-7H-pyrrolo[2,3-d]pyrimidin-5-yl]carbonyl}pyridin-2-yl)acetamide] | 8.82
25 | COCc1cn(CC(=O)Nc2cc(C(=O)c3cn(C(C)C)c4ncncc34)ccn2)nn1 [Example 117, 2-[4-(methoxymethyl)-1H-1,2,3-triazol-1-yl]-N-(4-{[7-(propan-2-yl)-7H-pyrrolo[2,3-d]pyrimidin-5-yl]carbonyl}pyridin-2-yl)acetamide] | 1550

— US20150218172A1, “Pyrrolo[2,3-D]Pyrimidine Tropomyosin-Related Kinase Inhibitors” (PFIZER LIMITED, priority 2012, published 2015)
